# Measured values from PubChem BioAssay (NCI).
#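 Compound exposure: 48 hours, 5 concentrations, 96-well plates. Abbreviation: GI50, concentration required for 50% inhibition of growth. At the TGI there is no net growth.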
# Key:
# Experiment in all cases: NCI tumour cell line growth inhibition, 48 h
# [1] = tested on: 786-0 renal
# [2] = tested on: A498 renal
# [3] = tested on: A549 NSCLC
# [4] = tested on: ACHN renal
# [5] = tested on: BT-549 breast
# [6] = tested on: CAKI-1 renal
# [7] = tested on: CCRF-CEM leukemia
# [8] = tested on: COLO 205 colon
# [9] = tested on: DU-145 prostate
# [10] = tested on: EKVX NSCLC
# [11] = tested on: HCC-2998 colon
# [12] = tested on: HCT-116 colon
# [13] = tested on: HCT-15 colon
# [14] = tested on: HL-60(TB) leukemia
# [15] = tested on: HOP-62 NSCLC
# [16] = tested on: HOP-92 NSCLC
# [17] = tested on: HS 578T breast
# [18] = tested on: HT29 colon
# [19] = tested on: IGROV1 ovarian
# [20] = tested on: K-562 leukemia
# [21] = tested on: KM12 colon
# [22] = tested on: LOX IMVI melanoma
# [23] = tested on: M14 melanoma
# [24] = tested on: MALME-3M melanoma
# [25] = tested on: MCF7 breast
# [26] = tested on: MDA-MB-231 breast
# [27] = tested on: MDA-MB-435
# [28] = tested on: MOLT-4 leukemia
# [29] = tested on: NCI-H226 lung
# [30] = tested on: NCI-H460 lung
# [31] = tested on: NCI-H522 lung
# [32] = tested on: NCI/ADR-RES ovarian
# [33] = tested on: OVCAR-3 ovarian
# [34] = tested on: OVCAR-4 ovarian
# [35] = tested on: OVCAR-5 ovarian
# [36] = tested on: OVCAR-8 ovarian
# [37] = tested on: PC-3 prostate
# [38] = tested on: RPMI-8226 leukemia
# [39] = tested on: RXF 393 renal
# [40] = tested on: SF-268 CNS
# [41] = tested on: SF-295 CNS
# [42] = tested on: SF-539 CNS
# [43] = tested on: SK-MEL-2 melanoma
# [44] = tested on: SK-MEL-28 melanoma
# [45] = tested on: SK-MEL-5 melanoma
# [46] = tested on: SK-OV-3 ovarian
# [47] = tested on: SN12C renal
# [48] = tested on: SNB-19 CNS
# [49] = tested on: SNB-75 CNS
# [50] = tested on: SR leukemia
# [51] = tested on: SW-620 colon
# [52] = tested on: T-47D breast
# [53] = tested on: TK-10 renal
# [54] = tested on: U251 CNS
# [55] = tested on: UACC-257 melanoma
# [56] = tested on: UACC-62 melanoma
# [57] = tested on: UO-31 renal
compound,measurement,setting,value
CN(C)CCCOc1c2ccc(Cl)cc2nc2c1oc1ccccc12,GI50,[1],1780 nM
same,TGI,[1],11200 nM
same,GI50,[2],3140 nM
same,TGI,[2],8920 nM
same,GI50,[3],1550 nM
same,TGI,[3],11200 nM
same,GI50,[4],623 nM
same,TGI,[4],12500 nM
same,GI50,[5],2080 nM
same,TGI,[5],7230 nM
same,GI50,[6],888 nM
same,TGI,[6],10400 nM
same,GI50,[7],2100 nM
same,TGI,[7],11100 nM
same,GI50,[8],1080 nM
same,TGI,[8],2520 nM
same,GI50,[9],2260 nM
same,TGI,[9],14000 nM
same,GI50,[10],2640 nM
same,TGI,[10],10300 nM
same,GI50,[11],1030 nM
same,TGI,[11],2530 nM
same,GI50,[12],437 nM
same,TGI,[12],10100 nM
same,GI50,[13],1070 nM
same,TGI,[13],10100 nM
same,GI50,[14],1830 nM
same,TGI,[14],5880 nM
same,GI50,[15],2090 nM
same,TGI,[15],11600 nM
same,GI50,[16],584 nM
same,TGI,[16],3590 nM
same,GI50,[17],2150 nM
same,TGI,[17],10100 nM
same,GI50,[18],713 nM
same,TGI,[18],3000 nM
same,GI50,[19],2140 nM
same,TGI,[19],12000 nM
same,GI50,[20],620 nM
same,TGI,[20],13900 nM
same,GI50,[21],1870 nM
same,TGI,[21],11900 nM
same,GI50,[22],516 nM
same,TGI,[22],1830 nM
same,GI50,[23],1500 nM
same,TGI,[23],3130 nM
same,GI50,[24],1730 nM
same,TGI,[24],3820 nM
same,GI50,[25],1170 nM
same,TGI,[25],5480 nM
same,GI50,[26],1800 nM
same,TGI,[26],8490 nM
same,GI50,[27],1550 nM
same,TGI,[27],3090 nM
same,GI50,[28],497 nM
same,TGI,[28],10500 nM
same,GI50,[29],2140 nM
same,TGI,[29],6770 nM
same,GI50,[30],557 nM
same,TGI,[30],10200 nM
same,GI50,[31],1570 nM
same,TGI,[31],4610 nM
same,GI50,[32],677 nM
same,TGI,[32],6650 nM
same,GI50,[33],2620 nM
same,TGI,[33],12700 nM
same,GI50,[34],1750 nM
same,TGI,[34],7310 nM
same,GI50,[35],2090 nM
same,TGI,[35],8040 nM
same,GI50,[36],1370 nM
same,TGI,[36],10900 nM
same,GI50,[37],1710 nM
same,TGI,[37],5410 nM
same,GI50,[38],2070 nM
same,TGI,[38],7520 nM
same,GI50,[39],1370 nM
same,TGI,[39],3710 nM
same,GI50,[40],1620 nM
same,TGI,[40],11200 nM
same,GI50,[41],2180 nM
same,TGI,[41],10800 nM
same,GI50,[42],1430 nM
same,TGI,[42],2840 nM
same,GI50,[43],1860 nM
same,TGI,[43],3530 nM
same,GI50,[44],1810 nM
same,TGI,[44],3430 nM
same,GI50,[45],1780 nM
same,TGI,[45],3210 nM
same,GI50,[46],2420 nM
same,TGI,[46],9550 nM
same,GI50,[47],1020 nM
same,TGI,[47],11200 nM
same,GI50,[48],2370 nM
same,TGI,[48],11900 nM
same,GI50,[49],1480 nM
same,TGI,[49],2850 nM
same,GI50,[50],697 nM
same,TGI,[50],6720 nM
same,GI50,[51],535 nM
same,TGI,[51],8310 nM
same,GI50,[52],2640 nM
same,TGI,[52],9870 nM
same,GI50,[53],2960 nM
same,TGI,[53],7620 nM
same,GI50,[54],1660 nM
same,TGI,[54],10700 nM
same,GI50,[55],1850 nM
same,TGI,[55],3790 nM
same,GI50,[56],1750 nM
same,TGI,[56],3610 nM
same,GI50,[57],553 nM
same,TGI,[57],3370 nM
